Read-outs that look alike come from different tables or passages of the source.

The test system of assay [1] is calcitonin receptor. Briefly: cAMP production in CHO cells (AlphaScreen). The assay is classed as cell-based. The note with it: for EC50: CHO, 30,000 cells/well.
A short description of assay [2]: plasma ionized calcium in rats. The class given is in vivo, rat. Conditions: subcutaneous, samples of Example 4. The method, then:
Using the samples obtained from Example 4, ionized calcium was measured in plasma samples obtained from gastric emptying experiments described above, using an ion selective electrode, Ciba/Corning 634 Ca/pH analyzer (Ciba/Corning, Inc., Medfield, Mass.).

Assay [3] concerns the target T1, calcitonin receptor (Homo sapiens, UniProt P30988).
T1 sequence (P30988 25-474): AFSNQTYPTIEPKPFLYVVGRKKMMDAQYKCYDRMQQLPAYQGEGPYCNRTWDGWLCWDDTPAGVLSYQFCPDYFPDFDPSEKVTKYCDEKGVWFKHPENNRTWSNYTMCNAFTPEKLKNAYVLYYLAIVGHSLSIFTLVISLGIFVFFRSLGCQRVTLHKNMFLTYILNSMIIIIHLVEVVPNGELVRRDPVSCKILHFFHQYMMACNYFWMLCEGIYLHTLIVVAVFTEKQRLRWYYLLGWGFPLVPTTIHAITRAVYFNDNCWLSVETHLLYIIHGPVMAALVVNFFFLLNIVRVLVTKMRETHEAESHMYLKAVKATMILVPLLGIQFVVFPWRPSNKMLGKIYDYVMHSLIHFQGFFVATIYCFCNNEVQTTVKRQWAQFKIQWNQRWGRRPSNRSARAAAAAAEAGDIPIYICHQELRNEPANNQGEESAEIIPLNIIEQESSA
Briefly: cAMP production in T47D cells (AlphaScreen). A general note: cAMP levels reflect the balance of adenylyl cyclase and phosphodiesterase activity.
Excerpt: Data from three exemplary independent alpha screen assays are summarized with EC50 values calculated in PRISM.

Another assay concerns Sprague-Dawley rats. Briefly: 1-week continuous subcutaneous infusion in high fat-fed rats: food intake and body weight. The class given is in vivo, rat. The note with it: 75 nmol/kg/day. The source says: Individually housed male Sprague-Dawley® rats (beginning weight=310 g; 12-h light/dark cycle) were maintained on a high fat (HF) diet (Research Diet 58% kcal from fat). Rats were fattened for 34 days. At the end of the fattening period, 7-day osmotic pumps (Durect Corp.) were implanted interscapularly under anesthesia (body weight at time of implant=403 g). The rats received pumps delivering compound or vehicle (50% DMSO). The following compounds were examined at a 75 nmol/kg/day dose: AFP-6, and an AFP-6 analog SEQ ID NO:32. Food intake and body weight measurements were obtained on day 2 and day 7. Group differences were analyzed using analysis of variance (ANOVA) and Fisher's Least-Significant Difference test.

The subject of a further assay is NIH/Swiss mice. In words: acute food intake assay in overnight-fasted mice, IP injection. The assay is classed as in vivo, mouse. As to the method:
The effect of AFP-6 on food intake was investigated using an acute food intake assay. This assay measured food consumption in lean, group-housed, overnight-fasted NIH/Swiss mice. 12 mice were housed 3 to a cage. The sample compound, in this case AFP-6, was injected IP in mice and food intake was measured during the next 2-hours. Decreased, as well as increased, food intake can be measured. Testing various doses of the compound generated ED50's. The assay was performed as follows: 1. Remove food (water ad libitum) at 5:00 pm the evening before the study. 2. Weigh food pellets (3 pellets/cage). 3. Inject animals intraperitoneally with 200 ul of appropriate solution, t=0. 4. Immediately add pre-weighed food to each cage (away from water bottle spout) and allow animals to feed undisturbed. 5. At 30, 60, and 120 minutes, collect and weigh food. 6. Analyze data. Data points represent mean ±sd of n=12.
Twelve mice were injected IP at t=0 for each dose, 0.3, 1, 3, 10, 30, 100, or 300 nmol/kg of AFP-6 (Amylin Pharmaceuticals, Inc.) (n=12/group). Food was introduced immediately after injection and amount consumed measured at t=30, 60, and 120 min.

The next assay deals with T2, amylin receptors (Rattus norvegicus, UniProt P32214).
T2 construct: This basal forebrain tissue, containing the nucleus accumbens and surrounding regions, was weighed and homogenized; from tissue; host or cells: rat basal forebrain (nucleus accumbens) membranes, male Sprague-Dawley rats
T2 sequence (P32214 25-516): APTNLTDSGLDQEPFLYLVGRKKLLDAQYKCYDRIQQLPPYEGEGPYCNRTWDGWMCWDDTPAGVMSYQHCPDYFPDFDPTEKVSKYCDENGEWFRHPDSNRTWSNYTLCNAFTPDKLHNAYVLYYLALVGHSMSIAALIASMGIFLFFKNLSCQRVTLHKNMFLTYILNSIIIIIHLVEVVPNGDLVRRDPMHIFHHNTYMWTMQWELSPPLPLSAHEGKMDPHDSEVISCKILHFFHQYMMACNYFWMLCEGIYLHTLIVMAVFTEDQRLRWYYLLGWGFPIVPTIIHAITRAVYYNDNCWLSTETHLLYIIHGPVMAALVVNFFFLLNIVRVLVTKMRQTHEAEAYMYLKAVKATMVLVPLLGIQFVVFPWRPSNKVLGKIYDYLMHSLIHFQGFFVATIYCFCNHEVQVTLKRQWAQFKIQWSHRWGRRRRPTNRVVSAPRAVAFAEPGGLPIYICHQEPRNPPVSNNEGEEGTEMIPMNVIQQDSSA
Briefly: amylin radioligand binding assay (125I-rat amylin, nucleus accumbens membranes). The note with it: FIG. 10. In short, it runs like this: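 Membranes from male Sprague-Dawley rat brain region rostral to hypothalamus, washed and resuspended in 20 mM HEPES with 0.2 mM PMSF. Incubation 60 min at 2 C, then filtration with cold PBS washes.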

A further assay concerns rats. Briefly: telemetry of cardiovascular parameters in conscious rats. The class given is in vivo, rat. Conditions: 10 nmol/kg intravenous. The source says: Telemetry allows for real-time hemodynamic readings including arterial pressure, heart rate, arterial dP/dt, ECG (with waveform intervals) and core temperature via an implanted radio transmitter in conscious, non-anesthetized, unrestrained rats. […] Remote intravenous dosing is achieved through in-dwelling vascular access ports.

The next assay has as its target T3, CGRP receptors (Homo sapiens, UniProt O60894+Q16602).
T3 construct: membranes prepared from SK-N-MC cells, known to express CGRP receptors; endogenous in cells; host or cells: SK-N-MC cell membranes
Briefly: CGRP radioligand binding assay (125I-hCGRP, SK-N-MC cell membranes). Conditions: FIG. 11.

T3 sequence (Q16602 23-461): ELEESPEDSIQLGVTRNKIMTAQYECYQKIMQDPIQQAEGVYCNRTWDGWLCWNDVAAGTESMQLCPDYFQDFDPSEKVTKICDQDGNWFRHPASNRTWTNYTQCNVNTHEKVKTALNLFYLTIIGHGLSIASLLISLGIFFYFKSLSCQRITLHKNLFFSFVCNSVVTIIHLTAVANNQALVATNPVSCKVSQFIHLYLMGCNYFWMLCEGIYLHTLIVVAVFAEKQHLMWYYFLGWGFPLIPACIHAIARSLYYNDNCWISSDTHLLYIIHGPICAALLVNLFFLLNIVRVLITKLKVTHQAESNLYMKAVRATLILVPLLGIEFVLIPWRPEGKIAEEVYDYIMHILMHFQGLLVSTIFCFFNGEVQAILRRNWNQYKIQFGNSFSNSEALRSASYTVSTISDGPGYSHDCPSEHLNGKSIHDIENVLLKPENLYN
T3 sequence (O60894 27-148): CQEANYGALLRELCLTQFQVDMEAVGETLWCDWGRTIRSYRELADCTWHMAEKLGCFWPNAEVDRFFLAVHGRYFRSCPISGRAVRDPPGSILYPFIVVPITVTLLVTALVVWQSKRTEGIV

Consider `CSCC[C@H](NC(=O)[C@H](CC(C)C)NC(=O)[C@H](CCC(N)=O)NC(=O)[C@H](Cc1c[nH]c2ccccc12)NC(=O)[C@H](CC(C)C)NC(=O)[C@H](CCCNC(=N)N)NC(=O)[C@H](Cc1c[nH]cn1)NC(=O)[C@H](CO)NC(=O)[C@H](CC(C)C)NC(=O)[C@H](CC(N)=O)NC(=O)[C@H](CCC(N)=O)NC(=O)[C@@H](NC(=O)[C@H](CCC(N)=O)NC(=O)[C@@H]1CSSC[C@H](NC(=O)CNC(=O)[C@@H](NC(=O)[C@H](CCCNC(=N)N)NC(=O)[C@H](CC(C)C)NC(=O)[C@H](CC(C)C)NC(=O)[C@H](CCC(N)=O)NC(=O)[C@H](C)NC(=O)[C@H](CCC(N)=O)NC(=O)[C@@H](N)[C@@H](C)O)C(C)C)C(=O)N[C@@H](C(C)C)C(=O)N[C@@H](CC(C)C)C(=O)NCC(=O)N[C@@H]([C@@H](C)O)C(=O)N1)C(C)C)C(=O)NCC(=O)N1CCC[C@H]1C(=O)N[C@@H](C)C(=O)NCC(=O)N[C@@H](CCCNC(=N)N)C(=O)N[C@@H](CCC(N)=O)C(=O)N[C@@H](CC(=O)O)C(=O)N[C@@H](CO)C(=O)N[C@@H](C)C(=O)N1CCC[C@H]1C(=O)N[C@H](C(=O)N[C@@H](CC(=O)O)C(=O)N1CCC[C@H]1C(=O)N[C@@H](CO)C(=O)N[C@@H](CO)C(=O)N1CCC[C@H]1C(=O)N[C@@H](Cc1c[nH]cn1)C(=O)N[C@@H](CO)C(=O)N[C@@H](Cc1ccc(O)cc1)C(N)=O)C(C)C` [SEQ ID NO: 1], for which the EC50 in the assay with calcitonin receptor [1] (average of three experiments, read-out: Average EC50) stood at 9.63 nM; in the assay on calcitonin receptor [1] (read-out: Experiment 1 EC50), 11.3 nM; with calcitonin receptor [1] (read-out: Experiment 2 EC50) it was 10.6 nM; with calcitonin receptor [1] (read-out: Experiment 3 EC50), 7 nM. The “rank order of potency in CHO cells” value with calcitonin receptor [1] (cAMP, FIG. 9) is “AFP-6>adrenomedullin=CGRP alpha”. Also, the “rank order of potency, CHO cell experiments” value in the assay on calcitonin receptor [1] (cAMP, panel of related peptides) is recorded as “calcitonin >AFP-6>amylin >hCGRP alpha>adrenomedullin”. Moreover, the “ED50, decrease of plasma ionized calcium” value in assay [2] is 0.025 mg/kg. Further, on calcitonin receptor [3], the “rank order of potency, T47D cells” value is “calcitonin>amylin >AFP-6=hCGRP alpha>adrenomedullin”. For the same molecule, the “body weight gain compared to Vehicle” value with Sprague-Dawley rats (Day 7) is “significantly less body weight gain than Vehicle”. Besides, the “percent body weight loss (vehicle-corrected)” value in the assay on Sprague-Dawley rats (Day 7) is recorded as 3.2%. Besides, the “food intake compared to Vehicle” value in the assay with Sprague-Dawley rats (after 2 days of treatment) is listed as “significantly reduced food intake”. Moreover, the “inhibition of food intake” value in the assay with NIH/Swiss mice (1 mg/kg IP, mice) is reported as 91%. For the same molecule, the “ED50, short-term food intake” value in the assay on NIH/Swiss mice (60 min time point, 0.3-300 nmol/kg IP, non-linear regression) is 19 nmol/kg. For the same molecule, the “FI 30 min ED50” value with NIH/Swiss mice (food intake, 30 min) fell in the range of 9 to 14 nmol/kg. The “FI 60 min ED50” value in the assay with NIH/Swiss mice (food intake, 60 min) lay within 14 to 19 nmol/kg. The “rank order of potency, displacement of bound amylin” value on amylin receptors is recorded as “amylin >CGRP>AFP-6 >>adrenomedullin>calcitonin”. The “profile over all three cardiovascular parameters” value in the assay with rats is given as “profile more amylin-like than adrenomedullin like”. Also, at CGRP receptors, the “rank order, displacement of CGRP” value is “CGRP >adrenomedullin >AFP-6 >amylin>>calcitonin”.

A word on the EC50: it is the concentration that produces a half-maximal response.
